Literature values as cited in patent US20080095838A1, “Solid pharmaceutical composition containing a lipophilic active principle and preparation method thereof” (CLL Pharma, priority 2002, published 2008).
Structures can show the parent of a compound that is named as a salt.

Assays:
[1] = in vivo
[2] = in water

elimination half-life [1] | SMILES | solubility [2]
approximately 20 hours | CC(C)OC(=O)C(C)(C)Oc1ccc(C(=O)c2ccc(Cl)cc2)cc1 [fenofibrate, 2-(4-(4-chlorobenzoyl)phenoxy)-2-methylpropanoic acid 1-methylethyl ester] | –
– | CC(C)(C)NC(=O)[C@@H]1C[C@@H]2CCCC[C@@H]2CN1C[C@@H](O)[C@H](Cc1ccccc1)NC(=O)[C@H](CC(N)=O)NC(=O)c1ccc2ccccc2n1 [saquinavir mesylate] | 2220 µg/mL
